Tested on: Microdochium nivale
Experiment: Microdochium nivale test (lawn)/protective
Assay type: in vivo
Settings: lawn (100% Agrostis stolonifera) in dishes; preventive application at 2000, 1000, 500 and 100 g/ha, 24 hours before inoculation with infected wheat grains; scoring after 5, 7, 14 and 21 days
Experimental: Microdochium nivale Test (Lawn)/Protective
Lawn seed (100% Agrostis stolonifera) was sown in dishes of the dimensions 38 cm×15 cm×9 cm. 7 days after sowing, the lawn was cut prior to preventive guanidinium hydroxide application at application rates of 2000, 1000, 500 and 100 g/ha. The water application rates were […] (converted). 24 hours after the preventive application of the active compound, the lawn was inoculated by placing of wheat grains infected with Microdochium nivale. In each case 3 wheat grains were placed into a single dish. Scoring of the subsequent fungal growth in the lawn dishes was carried out after 5, 7, 14 and 21 days. In the dishes which had been treated with guanidinium hydroxide, an inhibition of the growth of Microdochium nivale of up to 30% (Abbott) was observed.

N=C(N)N.O [guanidinium hydroxide]
inhibition of the growth of Microdochium nivale: up to 30 % (Abbott)
